# Test results: publication PMC8415707 (Frontiers in Pharmacology, 2021)
# No end group written: not given here.
# Key:
# [1] = system: Bacillus subtilis CMCC 63501; assay: microbe, parasite or virus in culture; assay type: cell-based
# Method: (§1) The antimicrobial activity of FM-CATH was measured using two-fold dilution method as reported previously by us ([Ye et al., 2020]). Microorganisms bought from Guangdong Institute of Microbiology were cultured in Muller-Hinton (MH) broth at 37°C to exponential phase and subsequently diluted with fresh MH broth to reach 10^6 CFU/ml of density. An equal volume of microbial inoculums in 96-well plates was incubated with different concentrations of FM-CATH at 37°C for 14 h. The absorbance at 600 nm was measured by a microplate spectrophotometer (Infinite M1000 Pro, Tecan Company, Switzerland) to calculate the minimal inhibitory concentration (MIC) values. […] Ampicillin and polymyxin B were used as positive controls.
# [2] = system: Candida albicans ATCC 10231; assay: microbe, parasite or virus in culture; assay type: cell-based
# Method: as §1
# [3] = system: Propionibacterium acnes ATCC 6919; assay: microbe, parasite or virus in culture; assay type: cell-based
# Method: as §1
# [4] = system: Pseudomonas aeruginosa ATCC 27853; assay: microbe, parasite or virus in culture; assay type: cell-based
# Method: as §1
# [5] = system: Escherichia coli ATCC 25922; assay type: cell-based; settings: ATCC 25922, 14 h
# Method: The antimicrobial activity of FM-CATH was measured using two-fold dilution method as reported previously by us ([Ye et al., 2020]). Microorganisms bought from Guangdong Institute of Microbiology were cultured in Muller-Hinton (MH) broth at 37°C to exponential phase and subsequently diluted with fresh MH broth to reach 10^6 CFU/ml of density. An equal volume of microbial inoculums in 96-well plates was incubated with different concentrations of FM-CATH at 37°C for 14 h. The absorbance at 600 nm was measured by a microplate spectrophotometer (Infinite M1000 Pro, Tecan Company, Switzerland) to calculate the minimal inhibitory concentration (MIC) values.
# A549 = assay: Cytotoxicity by MTT; assay type: cell-based; settings: A549, 24 h, 2.5-40 μM tested, n = 3; read-out: IC50 (proliferation, MTT)
# Method: (§2) Three tumor cell lines (A549, HepG2, and MDA-MB-231) and two normal mammalian cell lines (MH-S and MDCK) were seeded in 96-well plates at a density of 5,000 cells per well. […] The supernatant was removed and DMSO was added before the absorbance at 490 nm was measured.
# HepG2 = assay: Cytotoxicity by MTT; assay type: cell-based; settings: HepG2, 24 h, 2.5-40 μM tested, n = 3; read-out: IC50 (proliferation, MTT)
# Method: as §2
# MDCK = assay: Cytotoxicity by MTT; assay type: cell-based; settings: 24 h, 2.5-40 μM tested, n = 3, read-out: IC50 (proliferation, MTT)
# Method: as §2
# MH-S = settings: 24 h, 2.5-40 μM
# Method: as §2
# MDA-MB-231 = settings: MDA-MB-231, 24 h, 2.5-40 μM
# Method: as §2
# mouse erythrocytes = settings: 40 μM, 2% mouse erythrocyte suspension in TBS, room temperature, 2 h, absorbance 540 nm
# Method: Hemolytic assay was carried out with fresh blood from mouse heart as reported in our previous article with minor modification ([Chai et al., 2021]). […] 1% Triton X-100 and PBS were applied as the positive and negative control, respectively. The absorbance of the supernatant at 540 nm was measured with a microplate spectrophotometer. The hemolysis rate was calculated using the following formula: percentage hemolysis = (ODsample—ODPBS)/(ODTriton—ODPBS) × 100%.
# [6] = system: Staphylococcus aureus ATCC 25923; assay: Antimicrobial assay (MIC, two-fold dilution); assay type: cell-based; settings: MH broth, 10^6 CFU/ml, 37°C, 14 h, absorbance 600 nm
# Method: as §1
# [7] = Isothermal titration calorimetry, binding to LPS; set-up: species or system Escherichia coli O55:B5; settings: ITC, 1 mM peptide titrated into 50 μM LPS, 50 mM PBS pH 7.2, 25°C, single-site model
# Method: ITC assay was carried out to investigate the thermodynamics of interactions between peptides and LPS or LTA using MicroCal PEAQ-ITC (Malvern; United Kingdom). 50 mM of PBS (pH 7.2) was used to prepare stock solutions of peptide, LPS, and LTA. […] In LTA binding experiment, 100 μM LTA in the syringe was titrated into 280 μL of 50 μM FM-CATH in the cell with the condition described above. Instrument was operated in high feedback mode. After the heats derived from dilution were subtracted, the equilibrium disassociation constant (K D) and the enthalpy change (ΔH) were analyzed by fitting to a single-site binding model using the MicroCal Origin software. The Gibb’s free energy change (ΔG) and entropy change (ΔS) were obtained from the basic thermodynamic equations, respectively.
# [8] = two-fold dilution, MH broth, 10^6 CFU/ml, 37°C, 14 h, absorbance 600 nm
molecule,measurement,setting,value
CC1(C)S[C@@H]2[C@H](NC(=O)[C@H](N)c3ccccc3)C(=O)N2[C@H]1C(=O)O [Ampicillin],MIC,"[1]; Bacillus subtilis, CMCC63501, 14 h",> 100 µM
same,MIC,"[2]; Candida albicans, ATCC10231, 14 h",> 100 µM
same,MIC,"[3]; Cutibacterium acnes, ATCC6919, 14 h",> 100 µM
same,MIC,"[4]; Pseudomonas aeruginosa, ATCC27853, 14 h",> 100 µM
LKTKALNKLKQKLQAVGNLIGSVIKG [FM-CATH],MIC,"[1]; CMCC 63501, 14 h",12.5 µM
same,MIC,"[2]; ATCC 10231, 14 h",6.25 µM
same,MIC,"[3]; ATCC 6919, 14 h",6.25 µM
same,MIC,"[4]; ATCC 27853, 14 h",50 µM
same,MIC,[5],6.25 µM
same,IC50,A549,11.7 µM
same,IC50,HepG2,33.4 µM
same,IC50,MDCK,337 µM
same,cytotoxicity (MTT),MH-S,very low cytotoxicity
same,cytotoxicity (MTT),MDA-MB-231,very low cytotoxicity
same,hemolytic activity,mouse erythrocytes,almost no hemolytic activity
Polymyxin B,MIC,[1]; [8],25 µM
same,MIC,[2]; [8],25 µM
same,MIC,[3]; [8],6.25 µM
same,MIC,[4]; [8],50 µM
same,MIC,[6],>100 µM
same,Kd,[7],0.414 µM
same,∆H,[7],5.9 ± 0.156 kcal/mol
